According to EP0211584A1, “Antihypertensive agents” (AMERICAN HOME PRODUCTS CORPORATION, priority 1985, dated 1987):

Columns and labels:
[1] = tested on: isolated paced intact rabbit atria; assay: Cardiac depressant (negative inotropic) effect in isolated paced rabbit atria; settings: Oryctolagus cuniculus; rabbit atria paced at 3Hz, 30°C, cumulative dosing; read-out: IC25 (concentration which produces 25% inhibition of isometric force)
Method: The potential for detrimental cardiac depressant (negative inotropic) effects of the compounds of this invention was assessed in isolated paced intact rabbit atria. […] Muscles (N=5-9/compound) were stimulated at a frequency of 3Hz with a WPI stimulator for a 60 minute equilibration period. Changes in isometric force were recorded as described for the aortic smooth muscle experiments, supra. […]

[2] = tested on: rabbit aortic smooth muscle; assay: Ca+2 antagonism: relaxation of KCl-depolarized rabbit aortic smooth muscle strips; settings: Oryctolagus cuniculus, 20 min, compound 1 x 10^-5M; 100mM KCl contraction; 20 minutes after addition; mean of two experiments; read-out: P.R. (percent relaxation of aortic tissue)
Method: The composition of PSS was as follows (mM): NaCl 112,KCI 5, NaHCO3 25 KH2PO4 1, MgSO4 1.2, CaCl2 2.5, dextrose 10. The lower end of each tissue strip was attached to a fixed post and the upper end to a Statham UC-4 transducer. Changes in force development were recorded on a Beckman Dynograph Polygraphic Recorder.
Following equilibration, the muscles were contracted in a depolarizing solution of PSS in which 100mM KCI was substituted for an equimolar concentration of NaCI. Following attainment of steady- state isometric force (20 min.), the test compound was added to afford a final concentration of 1 x 10^-5M. The inhibitory effect, expressed as percent relaxation, was determined from the mean of two experiments twenty minutes after the addition of the compound being tested.
(§1) The following examples illustrate the preparation of a representative number of compounds of this invention. After each example, the Ca+2 antagonist activity of the compound is presented in terms of percent relaxation of aortic tissue (P.R.) at 10-^5M concentration. […] Inhibition of super- precipitation (Antag. of Actin-Myosin interaction) is expressed as percent inhibition (mean ± standard error of the mean for at least 3 separate experiments) at a compound concentration. In the same manner, inhibition of myosin light chain phosphorylation (Antag. of MLCP) is expressed as a percent inhibition at a compound concentration. Similarly, the antihypertensive activity is reported in terms of millimetres mercury (mmHg) systolic blood pressure (B.P.) reduction at the stated time post 50 mg/kg oral dosing or other dosing as indicated.

[3] = tested on: spontaneously hypertensive rats; assay: Hypotensive effect: systolic blood pressure of spontaneously hypertensive rats; type: in vivo; settings: mmHg per method
Method: The hypotensive in vivo effect of the compounds of this invention was determined by measuring changes in the systolic blood pressure of spontaneously hypertensive rats with a Decker Caudal Plethysmograph. The compound being tested was administered to a group of 4 rats and their systolic pressure was determined prior to and at 1.5 and 4 hours after compound administration. Initial testing was done by oral administration of the compound. Results (mmHg) are expressed as decreases in systolic blood pressure.
as §1

[4] = target: Ca^+2-calmodulin dependent myosin light chain phosphorylation (Bos taurus, UniProt Q28824); assay: Inhibition of myosin light chain phosphorylation (MLCP), Silver et al.; type: biochemical; settings: read-out: Antag. of MLCP (percent inhibition of myosin light chain phosphorylation)
Method: The data reported herein was obtained at a six minute time-point rather than the 1.5, 5 and 12 minute time points indicated in the superprecipita- tion assay of the Silver et al paper.
as §1

[5] = tested on: arterial actin-myosin interactions; assay: Inhibition of superprecipitation (antagonism of actin-myosin interaction), Silver et al.; type: biochemical; settings: six minute time-point
Method: . The data reported herein was obtained at a six minute time-point rather than the 1.5, 5 and 12 minute time points indicated in the superprecipita- tion assay of the Silver et al paper.
as §1

[6] = dose 50mg/kg oral, at 1.5 hours
[7] = dose 10mg/kg oral, at 1.5 hours
[8] = dose 25mg/kg oral, at 1.5 hours

Row | inhibition at 100 µM [4] [%] | inhibition at 25 µM [4] [%] | inhibition at 50 µM [4] [%] | inhibition at 10 µM [4] [%] | SMILES | IC25 [1] [nM] | inhibition at 10 µM [2] [%] | B.P. (systolic blood pressure reduction) [3, 6] [mm] | B.P. (systolic blood pressure reduction) ([3]; dose 50mg/kg oral, at 4 hours) [mm] | Antag. of Actin-Myosin (percent inhibition of superprecipitation) ([5]; 100µM) [%] | B.P. (systolic blood pressure reduction) [3, 7] [mm] | B.P. (systolic blood pressure reduction) ([3]; dose 10mg/kg oral, at 4 hours) [mm] | Antag. of Actin-Myosin (percent inhibition of superprecipitation) ([5]; 25µM) [%] | Antag. of Actin-Myosin (percent inhibition of superprecipitation) ([5]; 50µM) [%] | B.P. (systolic blood pressure reduction) [3, 8] [mm] | B.P. (systolic blood pressure reduction) ([3]; dose 25mg/kg oral, at 4 hours) [mm] | Antag. of Actin-Myosin (percent inhibition of superprecipitation) ([5]; 10µM) [%] | B.P. (systolic blood pressure reduction) ([3]; dose 5mg/kg oral, at 1.5 hours) [mm] | B.P. (systolic blood pressure reduction) ([3]; dose 5mg/kg oral, at 4 hours) [mm]
1 | 69 |  |  |  | CC1=C(C(=O)OCCOc2ccccc2)C(c2cccc(Cl)c2Cl)C2=C(CNCC2=O)N1 (centres unmarked) [Example 19, 4-(2,3-Dichlorophenyl)-1,4,5,6,7,8-hexahydro-2-methyl-5-oxo-1,7-naphthyridine-3-carboxylic acid 2-phenoxyethylester] | 2500 | 62 | -50 | -73 | 71 |  |  |  |  |  |  |  |  | 
2 | 67 ± 2 | 39 ± 2 | 59 ± 3 | 11 | CC1=C(C(=O)OCCOc2ccccc2)C(c2cccc(Cl)c2C)C2=C(CNCC2=O)N1 (centres unmarked) [Example 17, 4-(3-Chloro-2-methylphenyl)-1,4,5,6,7,8-hexahydro-2-methyl-5-oxo-1,7-naphthyridine-3-carboxylic acid 2-phenoxyethyl ester] | 1000 | 74 |  |  | 71±2 |  |  | 44±2 | 64±3 | -10 | -45 | 22 |  | 
3 | 76 | 59 |  |  | CC1=C(C(=O)OCC2COc3ccccc3O2)C(c2c(F)c(F)c(F)c(F)c2F)C2=C(CNCC2=O)N1 (centres unmarked) [Example 14, 1,4,5,6,7,8-Hexahydro-2-methyl-5-oxo-4-(pentafluorophenyl)-1,7-naphthyridine-3-carboxylic acid 2.3-dihvdro-1.4-benzodioxin-2-vimethvl ester] | 3200 | 62 | -46 | -42 | 80 |  |  | 65 |  |  |  |  |  | 
4 | 77 ± 3 | 35 | 64 |  | CC1=C(C(=O)OCCc2ccccc2)C(c2c(F)c(F)c(F)c(F)c2F)C2=C(CNCC2=O)N1 (centres unmarked) [Example 18, 1,4,5,6,7,8-Hexahydro-2-methyl-5-oxo-4-(pentafluorophenyl)-1,7-naphthyridine-3-carboxylic acid 2-phenylethyl ester] | 1000 | 48 |  |  | 78±2 | -27 | -24 | 42 | 65 |  |  |  |  | 
5 | 67 ± 2.3 | 48 ± 3 | 60 ± 4 | 32 ± 8 | CC1=C(C(=O)OCCOc2cccc(Cl)c2Cl)C(c2c(F)ccc(Cl)c2Cl)C2=C(CNCC2=O)N1 (centres unmarked) [Example 25, 4-(2,3-dichloro-6-fluorophenyl)-1,4,5,6,7,8-hexahydro-2-methyl-5-oxo-1,7-naphthyridine-3-carboxylic acid 2-(2,3-dichlorophenoxy)ethyl ester] | 700 | 59 |  |  | 73±2.4 |  |  | 55±2.5 | 67±5 | -74 | -70 | 34±7 | -18 | -40
6 | 24 |  |  |  | COC(COC(=O)C1=C(C)NC2=C(C(=O)CNC2)C1c1ccccc1C(F)(F)F)c1ccccc1 (centres unmarked) [Example 12, 1,4,5,6,7,8-Hexahydro-2-methyl-5-oxo-4-[2-(trifluoromethyl)phenyl]-1,7-naphthyridine-3-carboxylic acid 2-methoxv-2-ohenvlethvl ester] | 2000 | 39 |  |  | 30 |  |  |  |  | -56 | -56 |  |  | 

Further lines, the compound ahead of its results:

Row | SMILES | inhibition at 100 µM [4] [%] | inhibition at 25 µM [4] [%] | inhibition at 50 µM [4] [%] | inhibition at 10 µM [4] [%] | IC25 [1] [nM] | inhibition at 10 µM [2] [%] | B.P. (systolic blood pressure reduction) [3, 6] [mm] | B.P. (systolic blood pressure reduction) ([3]; dose 50mg/kg oral, at 4 hours) [mm] | Antag. of Actin-Myosin (percent inhibition of superprecipitation) ([5]; 100µM) [%] | B.P. (systolic blood pressure reduction) [3, 7] [mm] | B.P. (systolic blood pressure reduction) ([3]; dose 10mg/kg oral, at 4 hours) [mm] | Antag. of Actin-Myosin (percent inhibition of superprecipitation) ([5]; 25µM) [%] | Antag. of Actin-Myosin (percent inhibition of superprecipitation) ([5]; 50µM) [%] | B.P. (systolic blood pressure reduction) [3, 8] [mm] | B.P. (systolic blood pressure reduction) ([3]; dose 25mg/kg oral, at 4 hours) [mm] | Antag. of Actin-Myosin (percent inhibition of superprecipitation) ([5]; 10µM) [%] | B.P. (systolic blood pressure reduction) ([3]; dose 5mg/kg oral, at 1.5 hours) [mm] | B.P. (systolic blood pressure reduction) ([3]; dose 5mg/kg oral, at 4 hours) [mm]
7 | COC(COC(=O)C1=C(C)NC2=C(C(=O)CNC2)C1c1cccc(Cl)c1C)c1ccccc1 (centres unmarked) [Example 10, 4-(3-chloro-2-methylphenyl)-1,4,5,6,7,8-hexahydro-2-methyl-5-oxo-1,7-naphthyridine-3-carboxylic acid 2-methoxy-2-phenylethyl ester] | 75 ± 3 | 35 ± 5 | 62 ± 1 |  | > 10000 | 60 |  |  | 76±2 | -28 | -19 | 45±3 | 68±2 |  |  |  |  | 
8 | CC1=C(C(=O)OCCOc2ccccc2)C(c2c(F)c(F)c(F)c(F)c2F)C2=C(CNCC2=O)N1 (racemic) [Example 2, 1,4,5,6,7,8-Hexahydro-2-methyl-5-oxo-4-(pentafluorophenyl)-1,7-naphthyridine-3-carboxylic acid 2-phenoxvethvl ester] | 69 ± 3 | 24 ± 3 | 54 ± 4 |  | 1000 | 71 |  |  |  | -39 |  | 28± 2 | 58± 4 |  |  |  |  | 
9 | CC1=C(C(=O)OCCOc2ccccc2)C(c2c(F)c(F)c(F)c(F)c2F)C2=C(CNCC2=O)N1 (single isomer, unassigned; (-)) [Example 3, (-)-1,4,5,6,7,8-Hexahydro-2-methyl-5-oxo-4-(pentafluorophenyl)-1,7-naphthridine-3-carboxylic acid 2-phenoxyethyl ester] | 70 |  | 57 |  | > 10000 | 56 |  |  | 76 |  |  |  | 65 | -6 | -14 |  |  | 
10 | CO[C@H](COC(=O)C1=C(C)NC2=C(C(=O)CNC2)C1c1c(F)c(F)c(F)c(F)c1F)c1ccccc1 (stereo partly drawn) [Example 7, 1,4,5,6,7,8-Hexahydro-2-methyl-5-oxo-4-(pentafluorophenyl)-1,7-naphthyridine-3-carboxylic acid (S)-2-methoxy-2-ohenylethyl ester] | 74 |  | 59 |  | 65000 | 68 |  |  | 80 | -51 | -54 |  | 67 |  |  |  |  | 
11 | CC1=C(C(=O)OCCOc2ccccc2)C(c2ccccc2C)C2=C(CNCC2=O)N1 (centres unmarked) [Example 15, 1,4,5,6,7,8-Hexahydro-2-methyl-4-(2-methylphenyl)-5-oxo-1,7-naphthyridine-3-carboxylic arid 2-phenoxyethyl ester] |  |  |  |  | 4700 | 63 |  |  | 66±5 |  |  |  |  | -29 | -39 |  |  | 
